Laboratory results taken from the NIST ThermoML archive (doi:10.1021/acs.jced.8b00182).

Tests used:
[1] = Liquid; for mass density: 298.15 K, 100 kPa, Vibrating tube method; for vapor or sublimation pressure / Normal boiling temperature: Ebulliometric method (Recirculating still)
[2] = refractive index (Na D-line) (dimensionless); conditions: 298.15 K; 101.33 kPa; Liquid; Standard Abbe refractometry
[3] = xn = mol fraction of the nth substance listed; conditions: 298.15 K, 100 kPa, Liquid, Vibrating tube method

CCCCO [butan-1-ol]
Conditions	mass density [kg/m3]	refractive index
[1]	805.9	–
[2]	–	1.39732

Conditions	vapor or sublimation pressure [kPa]
[1], 402.59 K	150

CCCCO [butan-1-ol] + CCCCOC(C)=O
Conditions	mass density [kg/m3]
[3], x2 = 0	805.9

CCCCOC(C)=O [butyl ethanoate]
Conditions	Normal boiling temperature [°C]	mass density [kg/m3]	refractive index
[1]	125.83	876.5	–
[2]	–	–	1.39201

Conditions	vapor or sublimation pressure [kPa]
[1], 413.3 K	150

CCCCOC(C)=O [butyl ethanoate] + CCCCO
[3]
Conditions	mass density [kg/m3]
x1 = 0.0758	812.9
x1 = 0.1018	815.2
x1 = 0.1458	819
x1 = 0.2387	826.7
x1 = 0.3151	832.7
x1 = 0.3468	835.1
x1 = 0.3845	837.9
x1 = 0.3983	838.9
x1 = 0.4316	841.3
x1 = 0.5002	846.1
x1 = 0.5883	852
x1 = 0.6709	857.3
x1 = 0.7064	859.5
x1 = 0.7919	864.7
x1 = 0.8673	869.1
x1 = 0.9259	872.4
x1 = 0.9503	873.8
x1 = 1	876.5

CCCCOC(C)=O [butyl ethanoate] + CCCO
[3]
Conditions	mass density [kg/m3]
x1 = 0.0433	805.1
x1 = 0.1028	812.1
x1 = 0.2026	822.6
x1 = 0.2517	827.3
x1 = 0.2927	831
x1 = 0.35	835.9
x1 = 0.3986	839.8
x1 = 0.4482	843.6
x1 = 0.554	851.1
x1 = 0.5962	853.9
x1 = 0.6371	856.5
x1 = 0.7071	860.8
x1 = 0.7623	864
x1 = 0.8001	866.1
x1 = 0.8413	868.4
x1 = 0.8942	871.2
x1 = 0.9401	873.5
x1 = 1	876.5

CCCCOC(C)=O [butyl ethanoate] + CCO
[3]
Conditions	mass density [kg/m3]
x1 = 0.0443	793.7
x1 = 0.1461	810.2
x1 = 0.2003	817.6
x1 = 0.2554	824.3
x1 = 0.2954	828.8
x1 = 0.3487	834.3
x1 = 0.4451	843
x1 = 0.4968	847.2
x1 = 0.5987	854.6
x1 = 0.6505	858
x1 = 0.7492	863.9
x1 = 0.8035	866.9
x1 = 0.8567	869.7
x1 = 0.8978	871.7
x1 = 0.9429	873.9
x1 = 1	876.5

CCO [ethanol]
Conditions	Normal boiling temperature [°C]	mass density [kg/m3]	refractive index
[1]	78.30	785.2	–
[2]	–	–	1.35933

Conditions	vapor or sublimation pressure [kPa]
[1], 361.98 K	150

CCO [ethanol] + CCCCOC(C)=O
Conditions	mass density [kg/m3]
[3], x2 = 0	785.2

CO [methanol]
Conditions	vapor or sublimation pressure [kPa]
[1], 348.27 K	150

Conditions	Normal boiling temperature [°C]	refractive index
[1]	64.70	–
[2]	–	1.32676

CCCO [propan-1-ol]
Conditions	Normal boiling temperature [°C]	mass density [kg/m3]	refractive index
[1]	97.20	799.6	–
[2]	–	–	1.38315

Conditions	vapor or sublimation pressure [kPa]
[1], 381.24 K	150

CCCO [propan-1-ol] + CCCCOC(C)=O
Conditions	mass density [kg/m3]
[3], x2 = 0	799.6
